Experimental data reported in patent publication US8618170B2, “Oral formulations of bis(thiohydrazide amides)” (Synta Pharmaceuticals Corp., priority 2007, dated 2013).

Assays:
[1] = Pharmacokinetics after IV or oral administration in rat; format: in vivo, SD rat; settings: for bioavailability / AUC(0-inf) / Cmax / half-life / Tmax: male, Sprague-Dawley, plasma
Excerpt: (§1) The pharmacokinetics of compounds of the invention were compared in mouse, rat and dog by either intravenous or oral administration in various formulations including drug powder in capsules or in combination with generally recognized as safe (GRAS) excipients. After administration in animals, blood samples were collected at the appropriate time points and plasma was obtained for bioanalysis. Compounds were extracted by protein precipitation and analyzed by LC-UV or LC-MS/MS. PK analysis was performed by noncompartmental analysis using WinNonlin. Oral bioavailability (% F) was calculated based on AUC of Compound 1.
(§2) Blood was collected into heparinized tubes that contained dithioreitol (DTT; ˜2 mg/mL) at each time point. After centrifugation plasma was transferred to a new tube that contained DMSO (Plasma:DMSO ration 2:1 for rat/mouse, 9:1 for dog).
(§3) The pharmacokinetic parameters for compounds of the invention were determined from the plasma concentration data using the Noncompartmental Analysis module in WinNonlin, version 5.0 (Pharsight Corporation).

[2] = Pharmacokinetics after IV or oral administration in dog; format: in vivo; settings: Beagle dog M; for AUC(0-inf) / Cmax / Tmax / half-life / bioavailability: male, plasma
Excerpt: as §1, §2, §3

[3] = Pharmacokinetics after IV or oral administration in mouse; format: in vivo; settings: female, plasma, CD-1 mouse F
Excerpt: as §1, §2, §3

Aqueous solubility = format: physicochemical; settings: water
[4] = rat, iv, 25 mg/kg, SD rat M, IV bolus, Saline
[5] = rat, po, 50 mg/kg, SD rat M, Saline
[6] = beagle, dog, iv, 10 mg/kg, 1 h IV infusion, EES (sol'n)
[7] = beagle, dog, po, 50 mg/kg, TPGS/PEG400 (sol'n)
[8] = beagle, dog, po, 50 mg/kg, capsule (powder), 50 mg/kg as Compound 1 (free acid)
[9] = beagle, dog, po, 50 mg/kg, nanoparticles (colloidal dispersion)
[10] = rat, iv, 25 mg/kg, SD rat M, IV bolus, EES (sol'n)
[11] = rat, iv, 50 mg/kg, SD rat M, IV bolus, Phospholipid
[12] = rat, iv, 80 mg/kg, SD rat M, IV bolus, HP-β-CD/saline
[13] = rat, iv, 80 mg/kg, SD rat M, IV bolus, Lyophilized HP-β-CD/saline
[14] = rat, other: PI, 80 mg/kg, SD rat M, route PI, Lyophilized HP-β-CD/saline, 80 mg/kg
[15] = rat, po, 50 mg/kg, SD rat M, 0.5% MC (suspension)
[16] = rat, po, 50 mg/kg, SD rat M, Phospholipid
[17] = rat, po, 50 mg/kg, SD rat M, TPGS/PEG400 (sol'n)
[18] = rat, po, 50 mg/kg, SD rat M, nanoparticles (colloidal dispersion)
[19] = rat, po, 80 mg/kg, SD rat M, HP-β-CD/saline
[20] = rat, PO, nanoparticles (colloidal dispersion) vs 0.5% methylcellulose suspension
[21] = IV bolus, EES (sol'n), 10 mg/kg
[22] = PO, TPGS/PEG400 (sol'n), 100 mg/kg
[23] = rat, po, 50 mg/kg, SD rat M, capsule (powder), 50 mg/kg as Compound 1 (free acid)
[24] = PO, capsule (powder), 50 mg/kg as Compound 1 (free acid)

Compound: CN(NC(=O)CC(=O)NN(C)C(=S)c1ccccc1)C(=S)c1ccccc1 [Compound 22]
- bioavailability ([1]; SD rat M, PO, Saline, 50 mg/kg): 10.5%
- AUC(0-inf) [1, 4]: 11600 ng·h/mL
- Cmax [1, 4]: 39100 ng/mL
- half-life [1, 4]: 222 min
- AUC(0-inf) [1, 5]: 4760 ng·h/mL
- Cmax [1, 5]: 2400 ng/mL
- Tmax [1, 5]: 37.8 min
- half-life [1, 5]: 150 min

Compound: CN(NC(=O)CC(=O)NN(C)C(=S)c1ccccc1)C(=S)c1ccccc1 [Compound 1]
- AUC(0-inf) [2, 6]: 25800 ng·h/mL
- Cmax [2, 6]: 11600 ng/mL
- Tmax [2, 6]: 60 min
- half-life [2, 6]: 72 min
- AUC(0-inf) [2, 7]: 87500 ng·h/mL
- Cmax [2, 7]: 38100 ng/mL
- Tmax [2, 7]: 24 min
- half-life [2, 7]: 132 min
- bioavailability ([2]; beagle, dog, po, 50 mg/kg, TPGS/PEG400 (sol'n), reference Compound 1 IV infusion): 68%
- AUC(0-inf) [2, 8]: 6520 ng·h/mL
- Cmax [2, 8]: 1330 ng/mL
- Tmax [2, 8]: 120 min
- half-life [2, 8]: 150 min
- bioavailability ([2]; beagle, dog, po, 50 mg/kg, capsule (powder), 50 mg/kg as Compound 1 (free acid), reference Compound 1 IV infusion, based on AUC of Compound 1): < 5%
- AUC(0-inf) [2, 9]: 57500 ng·h/mL
- Cmax [2, 9]: 16800 ng/mL
- Tmax [2, 9]: 48 min
- half-life [2, 9]: 288 min
- bioavailability ([2]; beagle, dog, po, 50 mg/kg, nanoparticles (colloidal dispersion), reference Compound 1 IV infusion): 44.6%
- AUC(0-inf) [1, 10]: 9270 ng·h/mL
- Cmax [1, 10]: 29000 ng/mL
- Tmax [1, 10]: 4.98 min
- half-life [1, 10]: 102 min
- AUC(0-inf) [1, 11]: 29700 ng·h/mL
- Cmax [1, 11]: 95300 ng/mL
- Tmax [1, 11]: 4.98 min
- half-life [1, 11]: 54 min
- AUC(0-inf) [1, 12]: 23700 ng·h/mL
- Cmax [1, 12]: 58800 ng/mL
- Tmax [1, 12]: 4.98 min
- half-life [1, 12]: 48 min
- AUC(0-inf) [1, 13]: 25700 ng·h/mL
- Cmax [1, 13]: 63800 ng/mL
- Tmax [1, 13]: 4.98 min
- half-life [1, 13]: 24 min
- AUC(0-inf) [1, 14]: 5190 ng·h/mL
- Cmax [1, 14]: 2550 ng/mL
- Tmax [1, 14]: 15 min
- bioavailability [1, 14]: 21.3%
- half-life [1, 14]: 138 min
- AUC(0-inf) [1, 15]: 1220 ng·h/mL
- Cmax [1, 15]: 280 ng/mL
- Tmax [1, 15]: 30 min
- half-life [1, 15]: 192 min
- bioavailability ([1]; rat, po, 50 mg/kg, SD rat M, 0.5% MC (suspension), reference Compound 1 IV bolus): 6.6%
- AUC(0-inf) [1, 16]: 3790 ng·h/mL
- Cmax [1, 16]: 2050 ng/mL
- Tmax [1, 16]: 15 to 30 min
- bioavailability [1, 16]: 8.8%
- half-life [1, 16]: 54 min
- AUC(0-inf) [1, 17]: 2770 ng·h/mL
- Cmax [1, 17]: 1410 ng/mL
- Tmax [1, 17]: 18 min
- half-life [1, 17]: 126 min
- bioavailability ([1]; rat, po, 50 mg/kg, SD rat M, TPGS/PEG400 (sol'n), reference Compound 1 IV bolus): 14.9%
- AUC(0-inf) [1, 18]: 2370 ng·h/mL
- Cmax [1, 18]: 1070 ng/mL
- Tmax [1, 18]: 18 min
- half-life [1, 18]: 186 min
- bioavailability ([1]; rat, po, 50 mg/kg, SD rat M, nanoparticles (colloidal dispersion), reference Compound 1 IV bolus): 12.8%
- AUC(0-inf) [1, 19]: 4330 ng·h/mL
- Cmax [1, 19]: 2210 ng/mL
- Tmax [1, 19]: 15 to 30 min
- bioavailability [1, 19]: 17.5%
- half-life [1, 19]: 72 min
- AUC after nanoparticles compared with the suspension [1, 20]: higher
- Cmax after nanoparticles compared with the suspension [1, 20]: higher
- AUC(0-inf) [3, 21]: 3950 ng·h/mL
- Cmax [3, 21]: 6500 ng/mL
- Tmax [3, 21]: 4.98 min
- half-life [3, 21]: 54 min
- AUC(0-inf) [3, 22]: 8640 ng·h/mL
- Cmax [3, 22]: 12400 ng/mL
- Tmax [3, 22]: 15 min
- half-life [3, 22]: 60 min
- bioavailability ([3]; PO, TPGS/PEG400 (sol'n), 100 mg/kg, reference Compound 1 IV bolus): 21.9%
- solubility (Aqueous solubility): < 0.1 mg/mL

Compound: CN(/N=C(\[O-])C/C([O-])=N/N(C)C(=S)c1ccccc1)C(=S)c1ccccc1.[Na+].[Na+] [Compound 19]
- % F ([2]; PO, capsule (powder), 50 mg/kg as Compound 1 (free acid), reference Compound 1 IV infusion, based on AUC of Compound 1, 50 mg/kg): 80.2%
- AUC(0-inf) [2, 8]: 103000 ng·h/mL
- Cmax [2, 8]: 40400 ng/mL
- Tmax [2, 8]: 48 min
- half-life [2, 8]: 126 min
- % F ([1]; SD rat M, PO, capsule (powder), 50 mg/kg as Compound 1 (free acid), reference Compound 1 IV bolus, based on AUC of Compound 1, 50 mg/kg): 7.5%
- AUC(0-inf) [1, 23]: 1410 ng·h/mL
- Cmax [1, 23]: 640 ng/mL
- Tmax [1, 23]: 36 min
- half-life [1, 23]: 234 min
- bioavailability ([1]; rat, po, 50 mg/kg, SD rat M, capsule (powder), 50 mg/kg as Compound 1 (free acid), reference Compound 1 IV bolus, based on AUC of Compound 1): 5.7%
- solubility (Aqueous solubility): ~50 mg/mL

Compound: CN(NC(=O)CC(=O)NN(C)C(=S)c1ccccc1)C(=S)c1ccccc1 [Compound 26]
- AUC(0-inf) [2, 24]: 45600 ng·h/mL
- Cmax [2, 24]: 19700 ng/mL
- Tmax [2, 24]: 60 min
- half-life [2, 24]: 180 min
- AUC(0-inf) [1, 23]: 1080 ng·h/mL
- Cmax [1, 23]: 250 ng/mL
- Tmax [1, 23]: 54 min
- half-life [1, 23]: 222 min
